Test results from patent US20230086703A1, “N-(4-(5-chloropyridin-3-yl)phenyl)-2-(2-(cyclopropanesulfonamido)pyrimidin-4-yl) butanamide derivatives and related compounds as human CTPS1 inhibitors for the treatment of proliferative diseases” (Step Pharma S.A.S., priority 2019, published 2023).

Target: T1, human CTPS1 (Homo sapiens, UniProt P17812)
T1 construct: FLAG (with GG linker); His8 (with GG linker); purchased Proteros biostructures GmbH
T1 sequence (P17812 1-591): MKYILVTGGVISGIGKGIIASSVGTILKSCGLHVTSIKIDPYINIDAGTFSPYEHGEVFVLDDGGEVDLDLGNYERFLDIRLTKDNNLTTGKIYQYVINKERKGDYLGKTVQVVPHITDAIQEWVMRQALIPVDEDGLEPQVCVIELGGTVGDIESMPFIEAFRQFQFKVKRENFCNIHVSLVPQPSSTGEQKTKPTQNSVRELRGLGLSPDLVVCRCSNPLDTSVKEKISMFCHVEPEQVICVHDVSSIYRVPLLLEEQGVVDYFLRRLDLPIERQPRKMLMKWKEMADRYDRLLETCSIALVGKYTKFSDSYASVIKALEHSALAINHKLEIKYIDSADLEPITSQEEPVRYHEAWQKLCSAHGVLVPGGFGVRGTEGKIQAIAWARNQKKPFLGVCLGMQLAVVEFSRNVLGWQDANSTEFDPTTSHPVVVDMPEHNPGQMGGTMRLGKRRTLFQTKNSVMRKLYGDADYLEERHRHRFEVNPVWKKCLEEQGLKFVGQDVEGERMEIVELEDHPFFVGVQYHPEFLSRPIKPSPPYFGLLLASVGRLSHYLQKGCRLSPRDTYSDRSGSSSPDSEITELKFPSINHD
Assay: RapidFire/MS-based enzyme selectivity assay (human CTPS1 versus CTPS2), CTPS1 isoform
Assay type: biochemical
How it was run: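 Full-length C-terminal FLAG-His-tagged CTPS1 (1-591) was preincubated 10 min at 25 °C with compound in HEPES pH 8.0 buffer with MgCl2, KCl, DTT and Tween-20. Reactions were started with a 2× mix of ATP 0.3 mM, UTP 0.2 mM, GTP 0.07 mM and L-glutamine 0.1 mM, and run in the linear phase at 25 °C. IC50 comes from the RapidFire-MS ratio of CTP to 13C9-15N3-CTP.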

[1] = RapidFire/MS IC50 values of CTPS1 and CTPS2, Table 17
[2] = RapidFire/MS IC50 values of CTPS1 and CTPS2, Table 15
[3] = Table 16, human CTPS1 over human CTPS2, RapidFire/MS IC50 values

| Selectivity (fold selectivity between CTPS1 and CTPS2) [2] | Selectivity (fold selectivity between CTPS1 and CTPS2) [3] | Compound | other results |
| --- | --- | --- | --- |
|  | +++ (>60 fold (+++)) | CCOc1cncc(-c2ccc(C(=O)NC(CCOC)c3csc(NS(=O)(=O)C4CC4)n3)c(F)c2)n1 (centres unmarked) [R88, N-(1-(2-(cyclopropanesulfon-amido)thiazol-4-yl)-3-methoxypropyl)-4-(6-ethoxypyrazin-2-yl)-2-fluorobenzamide] |  |
|  | +++ (>60 fold (+++)) | CCOc1cncc(-c2ccc(C(=O)NC(CC)c3csc(NS(=O)(=O)C4CC4)n3)c(F)c2)n1 (racemic) [R62, N-(1-(2-(cyclopropanesulfonamido)thiazol-4-yl)propyl)-4-(6-ethoxypyrazin-2-yl)-2-fluorobenzamide] |  |
|  | ++ (>30-60 fold (++)) | COc1cc(-c2cncc(C(F)(F)F)n2)ccc1C(=O)NC(C)(C)c1csc(NS(=O)(=O)C2CC2)n1 [R48, N-(2-(2-(cyclopropanesulfonamido)thiazol-4-yl)propan-2-yl)-2-methoxy-4-(6-(trifluoromethyl)pyrazin-2-yl)benzamide] |  |
|  | +++ (>60 fold (+++)) | CC(C)(NC(=O)c1ccc(-c2cncc(Cl)n2)cc1)c1csc(NS(=O)(=O)C2CC2)n1 [R52, 4-(6-chloropyrazin-2-yl)-N-(2-(2-(cyclopropanesulfon-amido)thiazol-4-yl)propan-2-yl)benzamide] |  |
|  | ++ (>30-60 fold (++)) | CCOc1cncc(-c2ccc(C(=O)NC(C)(C)c3nc(NS(=O)(=O)C4CC4)sc3C)c(F)c2)n1 [R74, N-(2-(2-(cyclopropanesulfon-amido)-5-methylthiazol-4-yl)propan-2-yl)-4-(6-ethoxypyrazin-2-yl)-2-fluorobenzamide] |  |
|  | +++ (>60 fold (+++)) | CCOc1cncc(-c2ccc(C(=O)NC(CCOC)c3csc(NS(=O)(=O)C4CC4)n3)c(F)c2)n1 (single isomer, unassigned) [R92, N-(1-(2-(cyclopropanesulfon-amido)thiazol-4-yl)-3-methoxypropyl)-4-(6-ethoxypyrazin-2-yl)-2-fluorobenzamide] |  |
|  | +++ (>60 fold (+++)) | CCC(NC(=O)c1ccc(-c2cncc(F)c2)cc1)c1csc(NS(=O)(=O)C2CC2)n1 (single isomer, unassigned) [R69, N-(1-(2-(cyclopropanesulfon-amido)thiazol-4-yl)propyl)-4-(5-fluoropyridin-3-yl)benzamide] |  |
|  | +++ (>60 fold (+++)) | CCOc1cncc(-c2ccc(C(=O)NC(C)c3csc(NS(=O)(=O)C4CC4)n3)c(F)c2)n1 (centres unmarked) [R91, N-(1-(2-(cyclopropanesulfon-amido)thiazol-4-yl)ethyl)-4-(6-ethoxypyrazin-2-yl)-2-fluorobenzamide] |  |
|  | +++ (>60 fold (+++)) | CCOc1cncc(-c2ccc(C(=O)NC(C)(C)c3nc(NS(=O)(=O)C4CC4)sc3Cl)c(F)c2)n1 [R75, N-(2-(5-chloro-2-(cycloprop-anesulfonamido)thiazol-4-yl)propan-2-yl)-4-(6-ethoxypyrazin-2-yl)-2-fluorobenzamide] |  |

The next lines start with the compound.

| Compound | Selectivity (fold selectivity between CTPS1 and CTPS2) [2] | Selectivity (fold selectivity between CTPS1 and CTPS2) [3] | other results |
| --- | --- | --- | --- |
| CCOc1cncc(-c2ccc(NC(=O)C3(c4ccnc(NS(=O)(=O)C5CC5)n4)CCC(N(C)C)CC3)nc2)n1 (single isomer, unassigned) [P229, 1-(2-(cyclopropanesulfonamido)pyrimidin-4-yl)-4-(dimethylamino)-N-(5-(6-ethoxypyrazin-2-yl)pyridin-2-yl)cyclohexane-1-carboxamide] |  |  | Selectivity (fold selectivity between CTPS1 and CTPS2) [1]: +++ (>60 fold (+++)) |
| CCOc1cncc(-c2ccc(NC(=O)C3(c4ccnc(NS(=O)(=O)C5CC5)n4)CCCC3)nc2)n1 [P136, 1-(2-(cyclopropanesulfonamido)pyrimidin-4-yl)-N-(5-(6-ethoxypyrazin-2-yl)pyridin-2-yl)cyclopentane-1-carboxamide] | +++ (>60 fold (+++)) |  |  |
| CCOc1cncc(-c2ccc(NC(=O)C3(c4ccnc(NS(=O)(=O)C5CC5)n4)CCC4(CC3)OCCO4)nc2)n1 [P244, 8-(2-(cydopropanesulfonamido)pyrimidin-4-yl)-N-(5-(6-ethoxypyrazin-2-yl)pyridin-2-yl)-1,4-dioxaspiro[4.5]decane-8-carboxamide] |  |  | Selectivity (fold selectivity between CTPS1 and CTPS2) [1]: +++ (>60 fold (+++)) |
| CC(C)Oc1cncc(-c2ccc(NC(=O)C(C)(C)c3ccnc(NS(=O)(=O)C4CC4)n3)nc2)n1 [P9, 2-(2-(cyclopropanesulfonamido)pyrimidin-4-yl)-N-(5-(6-isopropoxypyrazin-2-yl)pyridin-2-yl)-2-methylpropanamide] | +++ (>60 fold (+++)) |  |  |
| CCOc1cncc(-c2ccc(NC(=O)C(F)(CC)c3cncc(NS(=O)(=O)C4CC4)n3)nc2)n1 (single isomer, unassigned) [P206, 2-(6-(2-cyclopropanesulfonamido)pyrazin-2-yl)-N-(5-(6-ethoxypyrazin-2-yl)pyridin-2-yl)-2-fluorobutanamide] | +++ (>60 fold (+++)) |  |  |
| CC(C)(C(=O)Nc1ccc(-c2cncc(C3CC3)n2)cn1)c1ccnc(NS(=O)(=O)C2CC2)n1 [P125, 2-(2-(cyclopropanesulfonamido)pyrimidin-4-yl)-N-(5-(6-cyclopropylpyrazin-2-yl)pyridin-2-yl)-2-methylpropanamide] | ++ (>30-60 fold (++)) |  |  |
| CCOc1cncc(-c2ccc(NC(=O)C(C)(C)c3ccnc(NS(=O)(=O)CC)n3)cc2)n1 [P74, N-(4-(6-ethoxypyrazin-2-yl)phenyl)-2-(2-(ethylsulfonamido)pyrimidin-4-yl)-2-methylpropanamide] | ++ (>30-60 fold (++)) |  |  |
| CCOc1cncc(-c2ccc(NC(=O)C(C)(C)c3ccnc(NS(=O)(=O)C4CC4)n3)c(F)c2)n1 [P38, 2-(2-(cyclopropanesulfonamido)pyrimidin-4-yl)-N-(4-(6-ethoxypyrazin-2-yl)-2-fluorophenyl)-2-methylpropanamide] | + (2-30 fold (+)) |  |  |
| CCOc1cncc(-c2cnc(NC(=O)C(CC)c3ccnc(NS(=O)(=O)C4CC4)n3)c(F)c2)n1 (centres unmarked) [P162, 2-(2-(cyclopropanesulfonamido)pyrimidin-4-yl)-N-(5-(6-ethoxypyrazin-2-yl)-3-fluoropyridin-2-yl)butanamide] | ++ (>30-60 fold (++)) |  |  |
| CCOc1cncc(-c2ccc(NC(=O)C(C)(C)c3nc(NS(=O)(=O)C4CC4)ncc3C)cc2)n1 [P70, 2-(2-(cyclopropanesulfonamido)-5-methylpyrimidin-4-yl)-N-(4-(6-ethoxypyrazin-2-yl)phenyl)-2-methylpropanamide] | + (2-30 fold (+)) |  |  |
| CCOc1cncc(-c2ccc(NC(=O)C3(c4ccnc(NS(=O)(=O)C5CC5)n4)CCC(O)CC3)nc2)n1 (single isomer, unassigned) [P228, 1-(2-(cyclopropanesulfonamido)pyrimidin-4-yl)-N-(5-(6-ethoxypyrazin-2-yl)pyridin-2-yl)-4-hydroxycyclohexanecarboxamide] |  |  | Selectivity (fold selectivity between CTPS1 and CTPS2) [1]: +++ (>60 fold (+++)) |
| CCOc1cncc(-c2ccc(NC(=O)C(C)(C)c3ccnc(NS(=O)(=O)C4CC4)n3)c(C#N)c2)n1 [P34, N-(2-cyano-4-(6-ethoxypyrazin-2-yl)phenyl)-2-(2-(cyclopropanesulfonamido)pyrimidin-4-yl)-2-methylpropanamide] | + (2-30 fold (+)) |  |  |
| CCC(C(=O)Nc1ccc(-c2cncc(Cl)c2)cc1)c1ccnc(NS(=O)(=O)C2CC2)n1 (centres unmarked) [P1, N-(4-(5-Chloropyridin-3-yl)phenyl)-2-(2-(cyclopropanesulfonamido)pyrimidin-4-yl)butanamide] | + (2-30 fold (+)) |  |  |
| CCOc1cncc(-c2ccc(NC(=O)C3(c4ccnc(NS(=O)(=O)C5CC5)n4)CCOCC3)nc2)n1 [P115, 4-(2-(Cyclopropanesulfonamido)pyrimidin-4-yl)-N-(5-(6-ethoxypyrazin-2-yl)pyridin-2-yl)tetrahydro-2H-pyran-4-carboxamide] | +++ (>60 fold (+++)) |  |  |
| CCOc1cncc(-c2ccc(NC(=O)C3(c4ccnc(NS(=O)(=O)C5CC5)n4)CCN(S(C)(=O)=O)CC3)nc2)n1 [P251] |  |  | Selectivity (fold selectivity between CTPS1 and CTPS2) [1]: +++ (>60 fold (+++)) |
| CCOc1cncc(-c2ccc(NC(=O)C3(c4ccnc(NS(=O)(=O)C5CC5)n4)CC3)cc2)n1 [P83, 1-(2-(cyclopropanesulfonamido)pyrimidin-4-yl)-N-(4-(6-ethoxypyrazin-2-yl)phenyl)cyclopropanecarboxamide] | +++ (>60 fold (+++)) |  |  |
| CCOc1cncc(-c2ccc(NC(=O)C(CC)c3ccnc(NS(=O)(=O)C4CC4)n3)nc2)n1 (centres unmarked) [P88, 2-(2-(cyclopropanesulfonamido)pyrimidin-4-yl)-N-(5-(6-ethoxypyrazin-2-yl)pyridin-2-yl)butanamide] | +++ (>60 fold (+++)) |  |  |
